Consider 19 compounds from patent US8481540B2, “Inhibitors of bruton's tyrosine kinase” (Hoffmann-La Roche Inc., priority 2010, dated 2013).

The structures appear in SMILES notation.

One test has as its system B cells in human blood. In words: Inhibition of B cell activation in whole blood measured by CD69 expression. Format: cell-based. The settings on record: CD69-positive, CD20-positive cells after anti-IgM stimulation, human whole blood, 20 hours, read-out: Human Whole Blood. As for the experimental part:
Inhibition of B Cell Activation in Whole Blood Measured by CD69 Expression
A procedure to test the ability of Btk inhibitors to suppress B cell receptor-mediated activation of B cells in human blood is as follows:
Human whole blood (HWB) is obtained from healthy volunteers, with the following restrictions: 24 hr drug-free, non-smokers. Blood is collected by venipuncture into Vacutainer tubes anticoagulated with sodium heparin. Test compounds are diluted to […] the desired starting drug concentration in PBS (20×), followed by three-fold serial dilutions in 10% DMSO in PBS to produce a nine point dose-response curve. 5.5 μl of each compound dilution is added in duplicate to a 2 ml96-well V bottom plate (Analytical Sales and Services, #59623-23); 5.5 μl of 10% DMSO in PBS is added to control and no-stimulus wells. HWB (100 μl) is added to each well, and after mixing the plates are incubated at 37 C, 5% CO2, 100% humidity for 30 minutes. Goat F(ab′)2 anti-human IgM (Southern Biotech, #2022-14) (10 μl of a […] solution, 50 μg/ml final concentration) is added to each well (except the no-stimulus wells) with mixing and the plates are incubated for an additional 20 hours.
At the end of the 20 hour incubation, samples are incubated with florescent-probe-labeled anti-bodies (15 μl PE Mouse anti-Human CD20, BD Pharmingen, #555623, and/or 20 ul APC Mouse anti-Human CD69, BD Pharmingen #555533) for 30 minutes, at 37 C, 5% CO2, 100% humidity. Included are induced control, unstained and single stains for compensation adjustments and initial voltage settings. Samples are then lysed with 1 ml of 1× Pharmingen Lyse Buffer (BD Pharmingen #555899), and plates are centrifuged at 1800 rpm for 5 minutes. Supernatants are removed via suction and the remaining pellets are lysed again with another 1 ml of 1× Pharmingen Lyse Buffer, and plates are spun down as before. Supernatants are aspirated and remaining pellets are washed in FACs buffer (PBS+1% FBS). After a final spin, the supernantants are removed and pellets are resuspended in 180 μl of FACs buffer. Samples are transferred to a 96 well plate suitable to be run on the HTS 96 well system on the BD LSR II flow cytometer.
Using appropriate excitation and emission wavelengths for the fluorophores used, data are acquired and percent positive cell values are obtained using Cell Quest Software. Results are initially analyzed by FACS analysis software (Flow Jo). […] The IC50 values are calculated using XLfit software version 3, equation 201.
Representative compound data for this assay are listed below in Table II.
Turning to `CN1CC2(C1)CN(c1ccc(Nc3cc(-c4cccc(-n5ncc6cc(C(C)(C)C)cc(F)c6c5=O)c4CO)nn(C)c3=O)nc1)C2` [I-22, 6-tert-butyl-8-fluoro-2-(2-hydroxymethyl-3-{1-methyl-5-[5-(6-methyl-2,6-diaza-spiro[3.3]hept-2-yl)-pyridin-2-ylamino]-6-oxo-1,6-dihydro-pyridazin-3-yl}-phenyl)-2H-phthalazin-1-one], the IC50 came out at 33 nM. For the compound `Cn1nc(-c2cccc(-n3ncc4cc(C(C)(C)C)cc(F)c4c3=O)c2CO)cc(Nc2ccc(N3CCC(C)(O)CC3)cn2)c1=O` [I-64, 6-tert-butyl-8-fluoro-2-(3-(5-(5-(4-hydroxy-4-methylpiperidin-1-yl)pyridin-2-ylamino)-1-methyl-6-oxo-1,6-dihydropyridazin-3-yl)-2-(hydroxymethyl)-phenyl)phthalazin-1(2H)-one], the IC50 was 66 nM. `CN1CCN(c2ccc(Nc3cc(-c4cccc(-n5ncc6cc(C(C)(C)C)cc(F)c6c5=O)c4CO)nn(C)c3=O)nn2)CC1` [I-45, 6-tert-Butyl-8-fluoro-2-(2-hydroxymethyl-3-{1-methyl-5-[6-(4-methyl-piperazin-1-yl)-pyridazin-3-ylamino]-6-oxo-1,6-dihydro-pyridazin-3-yl}-phenyl)-2H-phthalazin-1-one]: the IC50 was determined as 27 nM. Same read-out and setting: the figure for `CN(C)C(=O)c1ccc(Nc2cc(-c3cccc(-n4ccc5cc(C(C)(C)C#N)cc(F)c5c4=O)c3CO)nn(C)c2=O)nc1` [I-75, 6-(6-{3-[6-(Cyano-dimethyl-methyl)-8-fluoro-1-oxo-1H-isoquinolin-2-yl]-2-hydroxymethyl-phenyl}-2-methyl-3-oxo-2,3-dihydro-pyridazin-4-ylamino)-N,N-dimethyl-nicotinamide] is 180 nM; for `Cn1nc(-c2cccc(-n3ncc4cc(C(C)(C)C)cc(F)c4c3=O)c2CO)cc(Nc2ccc(OCC(C)(C)O)cn2)c1=O` [I-14, 6-tert-butyl-8-fluoro-2-(2-hydroxymethyl-3-{5-[5-(2-hydroxy-2-methyl-propoxy)-pyridin-2-ylamino]-1-methyl-6-oxo-1,6-dihydro-pyridazin-3-yl}-phenyl)-2H-phthalazin-1-one] it is 65 nM. The same measure, in the same setting: to `CC(=O)N1CCC(c2ccc(Nc3cc(-c4cccc(-n5ncc6cc(C(C)(C)C)cc(F)c6c5=O)c4CO)nn(C)c3=O)nc2)CC1` [I-63, 2-(3-(5-(5-(1-acetylpiperidin-4-yl)pyridin-2-ylamino)-1-methyl-6-oxo-1,6-dihydropyridazin-3-yl)-2-(hydroxymethyl)phenyl)-6-tert-butyl-8-fluorophthalazin-1(2H)-one] belongs 189 nM; to `Cn1nc(-c2cccc(-n3ncc4cc(C(C)(C)C)cc(F)c4c3=O)c2CO)cc(Nc2ccc(CN3CCC(C)(O)CC3)cn2)c1=O` [I-85, 6-tert-Butyl-8-fluoro-2-(2-hydroxymethyl-3-{5-[5-(4-hydroxy-4-methyl-piperidin-1-ylmethyl)-pyridin-2-ylamino]-1-methyl-6-oxo-1,6-dihydro-pyridazin-3-yl}-phenyl)-2H-phthalazin-1-one], 294 nM. On the same count and under the same terms, to `CCN1CCn2nc(Nc3cc(-c4cccc(-n5ccc6cc(C(C)(C)C#N)cc(F)c6c5=O)c4CO)nn(C)c3=O)cc2C1` [I-83, 2-(2-{3-[5-(5-Ethyl-4,5,6,7-tetrahydro-pyrazolo[1,5-a]pyrazin-2-ylamino)-1-methyl-6-oxo-1,6-dihydro-pyridazin-3-yl]-2-hydroxymethyl-phenyl}-8-fluoro-1-oxo-1,2-dihydro-isoquinolin-6-yl)-2-methyl-propionitrile] belongs 70 nM; to `CN1CCC(c2ccc(Nc3cc(-c4cccc(-n5ncc6cc(C(C)(C)C)cc(F)c6c5=O)c4CO)nn(C)c3=O)nc2)C1` (stereo not shown) [I-28, 6-tert-Butyl-8-fluoro-2-(2-hydroxymethyl-3-{1-methyl-5-[5-(1-methyl-pyrrolidin-3-yl)-pyridin-2-ylamino]-6-oxo-1,6-dihydro-pyridazin-3-yl}-phenyl)-2H-phthalazin-1-one], 6 nM; to `CCOC(=O)N1CCN(c2ccc(Nc3cc(-c4cccc(-n5ncc6cc(C(C)(C)C)cc(F)c6c5=O)c4CO)nn(C)c3=O)nc2)CC1` [I-86, 4-(6-{6-[3-(6-tert-Butyl-8-fluoro-1-oxo-1H-phthalazin-2-yl)-2-hydroxymethyl-phenyl]-2-methyl-3-oxo-2,3-dihydro-pyridazin-4-ylamino}-pyridin-3-yl)-piperazine-1-carboxylic acid ethyl ester], 408 nM. With `CN1CCC[C@H]1c1ccc(Nc2cc(-c3cccc(-n4ncc5cc(C(C)(C)C)cc(F)c5c4=O)c3CO)nn(C)c2=O)nc1` [I-18, 6-tert-Butyl-8-fluoro-2-(2-hydroxymethyl-3-{1-methyl-5-[5-((S)-1-methyl-pyrrolidin-2-yl)-pyridin-2-ylamino]-6-oxo-1,6-dihydro-pyridazin-3-yl}-phenyl)-2H-phthalazin-1-one], the IC50 amounted to 3 nM.

`CN1C[C@@H]2C[C@H]1CN2c1ccc(Nc2cc(-c3cccc(-n4ncc5cc(C(C)(C)C)cc(F)c5c4=O)c3CO)nn(C)c2=O)nn1` [I-46, 6-tert-Butyl-8-fluoro-2-(2-hydroxymethyl-3-{1-methyl-5-[6-((1S,4S)-5-methyl-2,5-diaza-bicyclo[2.2.1]hept-2-yl)-pyridazin-3-ylamino]-6-oxo-1,6-dihydro-pyridazin-3-yl}-phenyl)-2H-phthalazin-1-one]: the IC50 worked out at 293 nM. Regarding `CN1CC2(C1)CN(C(=O)c1ccc(Nc3cc(-c4cccc(-n5ncc6cc(C(C)(C)C)cc(F)c6c5=O)c4CO)nn(C)c3=O)nc1)C2` [I-50, 6-tert-butyl-8-fluoro-2-(2-(hydroxymethyl)-3-(1-methyl-5-(5-(6-methyl-2,6-diazaspiro[3.3]heptane-2-carbonyl)pyridin-2-ylamino)-6-oxo-1,6-dihydropyridazin-3-yl)phenyl)phthalazin-1(2H)-one], the IC50 stood at 86 nM.

Take `CC(C)N1CCC(c2ccc(Nc3cc(-c4cccc(-n5ncc6cc(C(C)(C)C)cc(F)c6c5=O)c4CO)nn(C)c3=O)nc2)CC1` [I-29, 6-tert-Butyl-8-fluoro-2-{2-hydroxymethyl-3-[5-(1′-isopropyl-1′,2′,3′,4′,5′,6′-hexahydro-[3,4′]bipyridinyl-6-ylamino)-1-methyl-6-oxo-1,6-dihydro-pyridazin-3-yl]-phenyl}-2H-phthalazin-1-one]: the IC50 was 15 nM. In the case of `Cn1nc(-c2cccc(-n3ncc4cc(C(C)(C)C)cc(F)c4c3=O)c2CO)cc(Nc2ccc(N3CCC(O)CC3)cn2)c1=O` [I-65, 6-tert-butyl-8-fluoro-2-(2-(hydroxymethyl)-3-(5-(5-(4-hydroxypiperidin-1-yl)pyridin-2-ylamino)-1-methyl-6-oxo-1,6-dihydropyridazin-3-yl)phenyl)phthalazin-1(2H)-one], the IC50 was found to be 62 nM. Same read-out and setting: the figure for `COC[C@H](O)COc1ccc(Nc2cc(-c3cccc(-n4ncc5cc(C(C)(C)C)cc(F)c5c4=O)c3CO)nn(C)c2=O)nc1` [I-16, 6-tert-Butyl-8-fluoro-2-(3-{5-[5-((S)-2-hydroxy-3-methoxy-propoxy)-pyridin-2-ylamino]-1-methyl-6-oxo-1,6-dihydro-pyridazin-3-yl}-2-hydroxymethyl-phenyl)-2H-phthalazin-1-one] is 26 nM; for `CN1CCC(c2ccc(Nc3cc(-c4cccc(-n5ccc6cc(C(C)(C)C#N)cc(F)c6c5=O)c4CO)nn(C)c3=O)nc2)CC1` [I-71, 2-(8-Fluoro-2-{2-hydroxymethyl-3-[1-methyl-5-(1′-methyl-1′,2′,3′,4′,5′,6′-hexahydro-[3,4′]bipyridinyl-6-ylamino)-6-oxo-1,6-dihydro-pyridazin-3-yl]-phenyl}-1-oxo-1,2-dihydro-isoquinolin-6-yl)-2-methyl-propionitrile] it is 32 nM; for `Cn1nc(-c2cccc(-n3ncc4cc(C(C)(C)C)cc(F)c4c3=O)c2CO)cc(Nc2ccc(C(=O)N3CCC(O)C3)cn2)c1=O` (stereo not shown) [I-54, 6-tert-butyl-8-fluoro-2-(2-(hydroxymethyl)-3-(5-(5-(3-hydroxypyrrolidine-1-carbonyl)pyridin-2-ylamino)-1-methyl-6-oxo-1,6-dihydropyridazin-3-yl)phenyl)phthalazin-1(2H)-one] it is 104 nM.

The test is the same for the next values; noted with them: Homo sapiens, 20 h, read-out: Human Whole Blood, CD69-positive, CD20-positive cells after anti-IgM stimulation, human whole blood, 20 hours.
In the case of `CN(C)C(=O)c1ccc(Nc2cc(-c3cccc(-n4ncc5cc(C(C)(C)C)cc(F)c5c4=O)c3CO)nn(C)c2=O)nc1` [I-10, 6-{6-[3-(6-tert-Butyl-8-fluoro-1-oxo-1H-phthalazin-2-yl)-2-hydroxymethyl-phenyl]-2-methyl-3-oxo-2,3-dihydro-pyridazin-4-ylamino}-N,N-dimethyl-nicotinamide], the IC50 is 19 nM.
